pIC50: −log10 of the molar value.
Tests used:
[1] = target: T1, SCD-1 (Homo sapiens, UniProt O00767); assay: Human enzymatic activity of SCD-1 from microsomes of HepG2 cells (conversion of [14C] stearic acid to oleic acid, HPLC); type: biochemical; conditions: microsomal fraction of HepG2 cells, 62 μM stearic acid, 20 minutes at 37° C., vs vehicle 0.1% DMSO; read-out: HSCD-1 (HEPG2) IC50
T1 construct: addition of 125 μg of microsomal fraction of HepG2 cells; host or cells: HepG2 human hepatocarcinoma cells (microsomal fraction)
T1 sequence (O00767 1-359): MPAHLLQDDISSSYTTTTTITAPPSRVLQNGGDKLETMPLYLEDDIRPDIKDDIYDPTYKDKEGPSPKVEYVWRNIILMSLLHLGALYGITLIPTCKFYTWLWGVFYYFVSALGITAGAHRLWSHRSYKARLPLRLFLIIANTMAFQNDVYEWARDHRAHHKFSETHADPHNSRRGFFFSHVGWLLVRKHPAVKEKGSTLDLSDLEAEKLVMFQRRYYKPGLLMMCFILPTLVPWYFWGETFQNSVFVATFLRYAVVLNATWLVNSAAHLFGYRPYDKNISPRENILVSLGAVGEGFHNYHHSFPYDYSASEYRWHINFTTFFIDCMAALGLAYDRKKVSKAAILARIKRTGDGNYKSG
Experimental: In vitro: Human enzymatic activity of SCD-1 from microsomes of HepG2 cells after treatment with the inhibitor compounds (% inhibition).
HepG2 cells of human hepatocarcinoma (ATCC, HB-8065) are cultured at confluence then trypsinated. The cell residue is solubilized in 10 mM Tris buffer (pH 7.4) sucrose (250 mM) DTT (1 mM) then the cells are lysed by sonication. The microsomes are obtained after centrifuging at 10,000 g for 20 minutes at 4° C. followed by centifrugation of the supernatant at 100,000 g for 60 minutes at 4° C. The residue is solubilized in 10 mM Tris buffer (pH 7.4) sucrose (250 mM) at 4° C. and the microsomal proteins are assayed and stored at −196° C. (liquid nitrogen).
The enzymatic reaction measures the conversion of stearic acid (C18:0 fatty acid) into oleic acid (C18:1 fatty acid) by SCD-1. The enzymatic reaction is initiated by the addition of 125 μg of microsomal fraction of HepG2 cells to tubes (total reaction volume of 500 μl) containing 62 μM stearic acid (45 μM stearic acid and 17 μM [^14C] stearic acid) in 100 mM phosphate buffer (pH 7.16) with 7.2 mM ATP, 0.54 mM CoA, 6 mM MgCl2, 0.8 mM NADH and the inhibitor compound or vehicle (0.1% DMSO). The tubes are incubated for 20 minutes at 37° C. then the enzymatic reaction is halted by the addition of KOH (12%) and saponification for 30 minutes at 80° C. After acidification (3N HCl), the fatty acids are extracted twice with ethyl ether, evaporated under nitrogen before being solubilized in methanol/dichloromethane (3:1). The reaction product (C18:1) is separated from the reaction substrate (C18:0) by HPLC (Perkin Elmer, C18 reverse phase column) coupled with an in-line radioactivity detector (FlowOne). Enzymatic activity is measured in picomoles of stearic acid converted to oleic acid per minute and per mg of protein. For each inhibitor compound, an IC50 value is determined, compared with the reference enzymatic activity (vehicle 0.1% DMSO). Sterculic acid is the reference inhibitor compound (Gomez F. E., Bauman D. E., Ntambi J. M., Fox B. G. Effects of sterculic acid on stearoyl-CoA desaturase in differentiating […] adipocytes. Biochem Biophys Res Commun. 300 316-326 (2003).

Row | melting point | pIC50 [1] | Compound
1 | 108 °C | 6.00 to 7.00 | Cc1ccc(C)c(OC2CCN(C(=O)Nc3ccnn(C)c3=O)CC2)c1 [Example 55, 4-(2,5-dimethyl-phenoxy)-piperidine-1-carboxylic acid (2-methyl-3-oxo-2,3-dihydro-pyridazin-4-yl)-amide]
2 | 133 °C | 6.00 to 7.00 | Cc1ccc(Cl)c(OC2CCN(C(=O)Nc3ccnn(C)c3=O)CC2)c1 [Example 56, 4-(2-chloro-5-methyl-phenoxy)-piperidine-1-carboxylic acid (2-methyl-3-oxo-2,3-dihydro-pyridazin-4-yl)-amide]
3 | 104 °C | 7.00 to 8.00 | Cc1ccc(C(C)C)cc1OC1CCN(C(=O)Nc2ccnn(C)c2=O)CC1 [Example 57, 4-(2-methyl-5-isopropyl-phenoxy)-pipéridine-1-carboxylic acid (2-methyl-3-oxo-2,3-dihydro-pyridazin-4-yl)-amide]
4 | 101 °C | 7.00 to 8.00 | Cn1nccc(NC(=O)N2CCC(Oc3cccc(C(F)(F)F)c3)CC2)c1=O [Example 58, 4-(5-trifluoromethyl-phenoxy)-piperidine-1-carboxylic acid (2-methyl-3-oxo-2,3-dihydro-pyridazin-4-yl)-amide]
5 | 124 °C | ~6.00 | Cc1ccccc1OC1CCN(C(=O)Nc2ccnn(C)c2=O)CC1 [Example 59, 4-(2-methyl-phenoxy)-piperidine-1-carboxylic acid (2-methyl-3-oxo-2,3-dihydro-pyridazin-4-yl)-amide]
6 | 127 °C | 6.00 to 7.00 | Cn1nccc(NC(=O)N2CCC(Oc3ccc(F)c(C(F)(F)F)c3)CC2)c1=O [Example 60, 4-(4-fluoro-5-trifluoromethyl-phenoxy)-piperidine-1-carboxylic acid (2-methyl-3-oxo-2,3-dihydro-pyridazin-4-yl)-amide]
7 | 145 °C | 7.00 to 8.00 | Cn1nccc(NC(=O)N2CCC(Oc3cc(F)ccc3C(F)(F)F)CC2)c1=O [Example 61, 4-(5-fluoro-2-trifluoromethyl-phenoxy)-piperidine-1-carboxylic acid (2-methyl-3-oxo-2,3-dihydro-pyridazin-4-yl)-amide]
8 | 125 °C | 7.52 | Cn1nccc(NC(=O)N2CCC(Oc3cc(Cl)ccc3Cl)CC2)c1=O [Example 62, 4-(2,5-dichloro-phenoxy)-piperidine-1-carboxylic acid (2-methyl-3-oxo-2,3-dihydro-pyridazin-4-yl)-amide]
9 | 124 °C | 7.52 | Cn1nccc(NC(=O)N2CCC(Oc3cc(Br)ccc3Cl)CC2)c1=O [Example 63, 4-(2-chloro-5-bromo-phenoxy)-piperidine-1-carboxylic acid (2-methyl-3-oxo-2,3-dihydro-pyridazin-4-yl)-amide]
10 | 124 °C | 6.00 to 6.52 | Cn1nccc(NC(=O)N2CCC(Oc3ccccc3Cl)CC2)c1=O [Example 64, 4-(2-chloro-phenoxy)-piperidine-1-carboxylic acid (2-methyl-3-oxo-2,3-dihydro-pyridazin-4-yl)-amide]
11 | 154 °C | 6.00 | Cn1nccc(NC(=O)N2CCC(Oc3ccc(Cl)c(Cl)c3)CC2)c1=O [Example 65, 4-(3,4-dichloro-phenoxy)-piperidine-1-carboxylic acid (2-methyl-3-oxo-2,3-dihydro-pyridazin-4-yl)-amide]
12 | 140 °C | 6.00 to 7.00 | Cn1nccc(NC(=O)N2CCC(Oc3ccc(Cl)cc3Cl)CC2)c1=O [Example 66, 4-(2,4-dichloro-phenoxy)-piperidine-1-carboxylic acid (2-methyl-3-oxo-2,3-dihydro-pyridazin-4-yl)-amide]
13 | 115 °C | 6.52 | Cn1nccc(NC(=O)N2CCC(Oc3cc(F)cc(C(F)(F)F)c3)CC2)c1=O [Example 67, 4-(3-fluoro-5-trifluoromethyl-phenoxy)-piperidine-1-carboxylic acid (2-methyl-3-oxo-2,3-dihydro-pyridazin-4-yl)-amide]

Reference: patent publication US8946225B2, “Derivatives of 2H pyridazin-3-ones, their preparation and their use as SCD-1 inhibitors” (Pierre Fabre Medicament, priority 2009, dated 2015)
